Where two headings read alike, the source gives them in different places.
B1: IL-7: cIAP2-inducing agent that imparts T cells with increased apoptotic resistance (protein, UniProt P13232 26-177, looked up)
Interleukin-7: DCDIEGKDGKQYESVLMVSIDQLLDSMKEIGSNCLNNEFNFFKRHICDANKEGMFLFRAARKLRQFLKMNSTGDFDLHLLKVSEGTTILLNCTGQVKGRKPAALGEAQPTKSLEENKSLKEQKKLNDLCFLKRLLQEIKTCWNKILMGTKEH

How the values were obtained:
[1] = tested on: cIAP2−/− and control mice; conditions: LPS 0 μg/kg, D-galactosamine 0.6 g/kg i.p.
Description: In addition, we exposed cIAP2^−/− mice to a second mode of LPS-induced toxicity, where treatment with D-galactosamine (DGLBN) sensitized mice to endotoxic shock.

spleen derived T cells = experiment: Dexamethasone-induced death of T cells pre-incubated with IL-7; assay type: cell-based, mouse; conditions: dexamethasone 100 nM
Procedure: Peritoneal-derived macrophages from cIAP2^−/− (lower panels) and cIAP2^+/+ mice (upper panels) were either pre-treated with LPS for 4 h or not pre-treated prior to exposure to α-Fas antibody and then TUNEL stained to assess cell viability (A). Percentages of viable cells (n=5, average of triplicate wells per mouse, P values were <0.01) are shown within each TUNEL stained panel along with the standard deviation. cIAP2^−/−-derived (open shapes) and cIAP2^+/+-derived (solid shapes) T cells were pre-incubated with a range of IL-7 concentrations and then exposed to dexamethasone and T cell survival was monitored over a 12 h period (B) (n=3, average of triplicate wells per mouse, results are mean±s.d., P values at the 12 h point were <0.05). Peritoneal-derived cell numbers are shown for macrophages of cIAP2^−/− mice and littermate control cIAP2^+/+ mice injected i.p. with LPS(C). […]
Confluent primary cultures of peritoneal-derived macrophages were either pre-treated with LPS (10 μg/ml, 4 h) or not pre-treated prior to exposure to α-Fas antibody (20 μg/ml, clone Jo2) and then TUNEL stained (Roche) to assess cell viability. Primary cultures of spleen derived T cells were pre-incubated with a range of IL-7 concentrations (0, 5, and 10 ng/ml) and then exposed to dexamethasone (100 nM) and T cell survival was monitored over a 12 h period.

Molecule	Survival ([1]; cIAP2+/+ mice)	Survival ([1]; cIAP2−/− mice)	Resistance to apoptosis with or without IL-7 pretreatment (spleen derived T cells; cIAP2−/− T cells)	Resistance against dexamethasone-induced death after IL-7 pre-exposure (spleen derived T cells; wild-type T cells, IL-7 5 or 10 ng/ml)
N[C@H]1C(O)O[C@H](CO)[C@H](O)[C@@H]1O (stereo partly drawn) [D-galactosamine]	6/6	6/6	–	–
B1	–	–	displayed no difference in the resistance to apoptosis	showed a dose dependent resistance against dexamethasone-induced death

Reference: patent US20060123501A1, “Method for treating inflammatory disorders” (priority 2004, published 2006)
